Laboratory results reported in patent US20220275372A1, “CONJUGATE AND USES THEREOF” (priority 2019, published 2022).

How the values were obtained:
[1] = ELISA biodistribution of PMO in tissues of treated HSA-LR mice; type: in vivo, mouse; conditions: for delivery of PMO to muscle: 2 weeks after IV administration
Method: Animal model and ASO injections. […] The intravenous injections in HSA-LR or C57BL/6 mice were performed by single or multiple administrations via the tail vein. […] Multiple injections were done at 2 weeks apart. Myotonia was evaluated and tissues were harvested 2 weeks after the last injection. For long-term experiments, tissues were harvested 3 months after the injection. For toxicology measurements, tissues were harvested after 1 week. Urine was tested by ELISAs (R&D cat# MKM100) with samples diluted to fit within standard curve. Values were normalised to urinary creatinine levels (Harwell) to account for urine protein concentration
ELISA based measurements of oligonucleotide concentrations in tissues. […] The probe was used to detect peptide-PMOs or naked PMO concentrations in eight different tissues (brain, kidney, liver, lung, heart, diaphragm, gastrocnemius and quadriceps) from treated HSA-LR mice.

[2] = test system: Mbnl-dependent transcripts (Clcn1 exon 7a, Serca exon22, Mbnl1 exon 5, Ldb3 exon11); assay: RT-PCR splicing correction in muscle of HSA-LR mice; type: in vivo, mouse; conditions: for splicing defects (clcn1 exon 7a, serca exon22, mbnl1 exon 5): 30 mg/kg IV, gastrocnemius and quadriceps of HSA-LR mice, two weeks after treatment; for splicing of Clcn1 exon 7a, Serca exon22, Mbnl1 exon 5 and Ldb3 exon11: 30 and 40 mg/kg, gastrocnemius of HSA-LR mice; for duration of splicing correction after treatment / splicing correction after single low doses: HSA-LR mice; for splicing correction after single low doses: single low doses (5 and 7.5 mg/kg)
Method: (§1) Animal model and ASO injections. Experiments were carried out in the University of Oxford or in the “Centre d'études fonctionnelles” (Faculté de Médecine Sorbonne University) according to UK and French legislation respectively (Ethics committee approval #1760-2015091512001083v6). The intravenous injections in HSA-LR or C57BL/6 mice were performed by single or multiple administrations via the tail vein. Doses of 5, 7.5, 12.5, 30 or 40 mg/kg of peptide-PMO-CAG7 and 12.5 or 200 mg/kg of PMO were diluted in 0.9% saline and given at a volume of 5-6 μL/g of body weight. Multiple injections were done at 2 weeks apart. Myotonia was evaluated and tissues were harvested 2 weeks after the last injection. For long-term experiments, tissues were harvested 3 months after the injection. For toxicology measurements, tissues were harvested after 1 week. Urine was tested by ELISAs (R&D cat# MKM100) with samples diluted to fit within standard curve. Values were normalised to urinary creatinine levels (Harwell) to account for urine protein concentration
RNA isolation, RT-PCR and qPCR analysis. For mice tissues: prior to RNA extraction, muscles were disrupted in TriReagent (Sigma-Aldrich) using Fastprep system and Lysing Matrix D tubes (MP biomedicals). For human cells: prior to RNA extraction, cells were lysed in a proteinase K buffer (500 mM NaCl, 10 mM Tris-HCl, pH 7.2, 1.5 mM MgCl2, 10 mM EDTA, 2% SDS and 0.5 mg/ml of proteinase K) for 45 min at 55° C. Total RNAs were isolated using TriReagent according to the manufacturer's protocol. One microgram of RNA was reverse transcribed using M-MLV first-strand synthesis system (Life Technologies) according to the manufacturer's instructions in a total of 20 μL. One microliter of cDNA preparation was subsequently used in a semi-quantitative PCR analysis according to standard protocol (ReddyMix, Thermo Scientific).
PCR amplification was carried out for 25-35 cycles within the linear range of amplification for each gene. PCR products were resolved on 1.5-2% agarose gels, ethidium bromide-stained and quantified with ImageJ software. The ratios of exon inclusion were quantified as a percentage of inclusion relative to total intensity of isoform signals. To quantify the mRNA expression, real-time PCR was performed according to the manufacturer's instructions. PCR cycles were a 15-min denaturation step followed by 50 cycles with a 94° C. denaturation for 15 s, 58° C. annealing for 20 s and 72° C. extension for 20 s.

WT mice = assay: Recovery time after injection, WT mice; type: in vivo, mouse; conditions: 30 mg/kg, age 8-12 weeks
Method: as §1

human hepatocytes = assay: Cell viability in human hepatocytes; type: cell-based; conditions: 40 μM
Method: (§2) Cell culture and Peptide-PMO treatment. Immortalized myoblasts from healthy individual or DM1 patient with 2600 CTG repeats were cultivated in a growth medium consisting of a mix of M199:DMEM (1:4 ratio; Life technologies) supplemented with 20% FBS (Life technologies), 50 μg/ml gentamycin (Life technologies), 25 μg/ml fetuin, 0.5 ng/ml bFGF, 5 ng/ml EGF and 0.2 μg/ml dexamethasone (Sigma-Aldrich). Myogenic differentiation was induced by switching confluent cell cultures to DMEM medium supplemented with […] insulin (Sigma-Aldrich) for myoblasts. For treatment, WT or DM1 cells are differentiated for 4 days. Then, medium was changed with fresh differentiation medium with peptide-PMO conjugates at a 1, 2 ,5 10, 20 or 40 μM concentration. Cells were harvested for analysis 48 h after treatment. Cell viability was quantified in after 2 days of transfection of peptide-PMOs at 40 uM in human hepatocytes or at a 1, 2 ,5 10, 20 or 40 μM concentration in human myoblasts using a fluorescent-based assay (Promega).

mice = assay: Mortality in mice; conditions: mouse, in vivo
human myoblasts = assay: Cell viability in human myoblasts; type: cell-based; conditions: 1-40 μM, 48 hours
Method: as §2

[3] = 600 mg/kg (3 injections at 200 mg/kg) IV, 2 weeks post administration

Substance: Ac-RBRRBRFQILYBRBR-B [DPEP1.9]
- delivery of PMO to muscle [1]: able to deliver the PMO to muscle successfully
- splicing defects (clcn1 exon 7a, serca exon22, mbnl1 exon 5) [2]: corrected to wild type levels
- splicing of Clcn1 exon 7a, Serca exon22, Mbnl1 exon 5 and Ldb3 exon11 [2]: splicing normalization to wild type levels
- duration of splicing correction after treatment [2]: at least 3 months
- splicing correction after single low doses [2]: significant

Substance: Ac-RBRRBRFQILYBRBR-E [DPEP1.9b]
- delivery of PMO to muscle [1]: able to deliver the PMO to muscle successfully
- recovery time after injection, time AV ± SD (WT mice): 15 min

Substance: Ac-RXRRBRRXR-YQFLI-RXRBRXR-B [pip6a]
- cell mortality in human hepatocytes (human hepatocytes): > 50%
- dose that cannot be tested without causing high rates of mortality in mice (mice): > 20 mg/kg
- cell viability of human myoblasts (human myoblasts): induced cell mortality at lower doses

Substance: Ac-RXRRBRR-FQILY-RBRXR-B [Pip9b2-PMO]
- cell mortality in human hepatocytes (human hepatocytes): > 50%
- cell viability of human myoblasts (human myoblasts): induced cell mortality at lower doses

Substance: Ac-RBRRBRFQILYRBHBH-B [DPEP3.8]
- splicing defects (clcn1 exon 7a, serca exon22, mbnl1 exon 5) [2]: corrected to wild type levels
- splicing of Clcn1 exon 7a, Serca exon22, Mbnl1 exon 5 and Ldb3 exon11 [2]: splicing normalization to wild type levels
- duration of splicing correction after treatment [2]: at least 3 months
- splicing correction after single low doses [2]: significant

Substance: CAGCAGCAGCAGCAGCAGCAG (all phosphorodiamidate morpholino (PMO); Cell-penetrating peptide conjugated to the 3' end in the conjugates, further chemistry not fully specified) [Naked PMO]
- pM in Tissue: Diaphragm [1, 3]: 30 pM
- pM in Tissue: Gastrocnemius [1, 3]: 18 pM
- pM in Tissue: Heart [1, 3]: 198 pM
- pM in Tissue: Kidney [1, 3]: 426748 pM
- pM in Tissue: Liver [1, 3]: 252 pM
- pM in Tissue: Lung [1, 3]: 113 pM
- PMO levels in all tissues tested ([1]; 3 injections at 200 mg/kg, 2 weeks post administration): low to non-detectable levels
- PMO detected in muscle tissues ([1]; two weeks after 3x200 mg/kg naked PMO IV): low pM

Substance: Ac-RBRRBRRFQILYRBHBH-Ab [DPEP3.1a]
- recovery time after injection, time AV ± SD (WT mice): 10 min
